Measurements from ChEMBL document CHEMBL3132769, “Fragment growing to retain or alter the selectivity of anchored kinase hinge-binding fragments” (Medchemcomm, 2014).

What was measured:
[1] = target: Tyrosine-protein kinase Fyn (Homo sapiens) (UniProt P06241); assay: Inhibition of human full length FYN expressed in baculovirus assessed as substrate phosphorylation using fluorescence-labelled peptides as substrate at 8 uM after 90 mins by microfluidic peptide phosphorylation assay
[2] = target: Insulin receptor (Homo sapiens) (UniProt P06213); assay: Inhibition of human INSR catalytic domain expressed in baculovirus assessed as substrate phosphorylation using fluorescence-labelled peptides as substrate at 8 uM after 90 mins by microfluidic peptide phosphorylation assay
[3] = target: MAP kinase p38 (Homo sapiens) (UniProt O15264+Q15759+Q16539+P53778); assay: Inhibition of human full length p38 beta2 expressed in Escherichia coli cell assessed as substrate phosphorylation using fluorescence-labelled peptides as substrate at 0.06 uM after 90 mins by microfluidic peptide phosphorylation assay
MAP kinase p38 (Homo sapiens), sequence (O15264 whole entry, looked up, the tested form may be a part): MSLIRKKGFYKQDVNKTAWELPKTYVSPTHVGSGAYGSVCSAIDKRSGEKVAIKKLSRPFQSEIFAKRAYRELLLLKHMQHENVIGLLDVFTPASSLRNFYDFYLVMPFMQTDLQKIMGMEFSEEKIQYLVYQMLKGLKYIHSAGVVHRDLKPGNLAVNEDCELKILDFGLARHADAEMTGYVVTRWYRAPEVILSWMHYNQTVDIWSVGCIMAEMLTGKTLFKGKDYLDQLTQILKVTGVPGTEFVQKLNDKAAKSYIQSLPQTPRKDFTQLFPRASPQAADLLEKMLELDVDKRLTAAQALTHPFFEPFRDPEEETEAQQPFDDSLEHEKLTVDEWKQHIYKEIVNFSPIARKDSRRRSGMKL
MAP kinase p38 (Homo sapiens), sequence (P53778 whole entry, looked up, the tested form may be a part): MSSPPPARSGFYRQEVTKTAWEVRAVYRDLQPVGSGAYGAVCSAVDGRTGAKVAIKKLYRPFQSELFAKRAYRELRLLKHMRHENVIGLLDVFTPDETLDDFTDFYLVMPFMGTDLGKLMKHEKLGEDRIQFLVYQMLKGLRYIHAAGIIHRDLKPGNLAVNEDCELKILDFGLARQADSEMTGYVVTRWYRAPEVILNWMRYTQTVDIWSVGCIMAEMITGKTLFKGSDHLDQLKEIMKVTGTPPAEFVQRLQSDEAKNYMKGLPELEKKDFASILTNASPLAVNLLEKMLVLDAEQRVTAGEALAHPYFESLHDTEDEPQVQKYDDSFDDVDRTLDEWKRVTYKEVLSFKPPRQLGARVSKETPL
MAP kinase p38 (Homo sapiens), sequence (Q15759 whole entry, looked up, the tested form may be a part): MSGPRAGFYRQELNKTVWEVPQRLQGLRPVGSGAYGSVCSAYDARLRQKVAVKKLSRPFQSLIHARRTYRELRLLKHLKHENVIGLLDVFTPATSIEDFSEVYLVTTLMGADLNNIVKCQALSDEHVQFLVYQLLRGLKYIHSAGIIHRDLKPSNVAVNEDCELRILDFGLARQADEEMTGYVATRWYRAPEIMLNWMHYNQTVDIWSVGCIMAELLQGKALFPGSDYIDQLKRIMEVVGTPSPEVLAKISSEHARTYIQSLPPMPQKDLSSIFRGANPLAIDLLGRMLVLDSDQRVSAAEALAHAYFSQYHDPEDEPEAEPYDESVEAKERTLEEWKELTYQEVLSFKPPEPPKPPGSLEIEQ
MAP kinase p38 (Homo sapiens), sequence (Q16539 whole entry, looked up, the tested form may be a part): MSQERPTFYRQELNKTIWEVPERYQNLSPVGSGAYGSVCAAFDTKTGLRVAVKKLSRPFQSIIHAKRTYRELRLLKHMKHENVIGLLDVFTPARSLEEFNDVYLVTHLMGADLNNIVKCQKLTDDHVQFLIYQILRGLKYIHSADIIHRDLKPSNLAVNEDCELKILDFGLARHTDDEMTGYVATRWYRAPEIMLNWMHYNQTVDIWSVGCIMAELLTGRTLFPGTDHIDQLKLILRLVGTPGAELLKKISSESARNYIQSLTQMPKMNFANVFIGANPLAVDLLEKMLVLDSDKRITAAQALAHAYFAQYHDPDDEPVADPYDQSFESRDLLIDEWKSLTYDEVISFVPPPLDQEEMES

[4] = system: T1, Receptor-type tyrosine-protein kinase FLT3 (Homo sapiens), P36888 [D835Y]; assay: Inhibition of human FLT3 D835Y mutant catalytic domain expressed in baculovirus assessed as substrate phosphorylation using fluorescence-labelled peptides as substrate at 0.06 uM after 90 mins by microfluidic peptide phosphorylation assay
T1 sequence (whole entry): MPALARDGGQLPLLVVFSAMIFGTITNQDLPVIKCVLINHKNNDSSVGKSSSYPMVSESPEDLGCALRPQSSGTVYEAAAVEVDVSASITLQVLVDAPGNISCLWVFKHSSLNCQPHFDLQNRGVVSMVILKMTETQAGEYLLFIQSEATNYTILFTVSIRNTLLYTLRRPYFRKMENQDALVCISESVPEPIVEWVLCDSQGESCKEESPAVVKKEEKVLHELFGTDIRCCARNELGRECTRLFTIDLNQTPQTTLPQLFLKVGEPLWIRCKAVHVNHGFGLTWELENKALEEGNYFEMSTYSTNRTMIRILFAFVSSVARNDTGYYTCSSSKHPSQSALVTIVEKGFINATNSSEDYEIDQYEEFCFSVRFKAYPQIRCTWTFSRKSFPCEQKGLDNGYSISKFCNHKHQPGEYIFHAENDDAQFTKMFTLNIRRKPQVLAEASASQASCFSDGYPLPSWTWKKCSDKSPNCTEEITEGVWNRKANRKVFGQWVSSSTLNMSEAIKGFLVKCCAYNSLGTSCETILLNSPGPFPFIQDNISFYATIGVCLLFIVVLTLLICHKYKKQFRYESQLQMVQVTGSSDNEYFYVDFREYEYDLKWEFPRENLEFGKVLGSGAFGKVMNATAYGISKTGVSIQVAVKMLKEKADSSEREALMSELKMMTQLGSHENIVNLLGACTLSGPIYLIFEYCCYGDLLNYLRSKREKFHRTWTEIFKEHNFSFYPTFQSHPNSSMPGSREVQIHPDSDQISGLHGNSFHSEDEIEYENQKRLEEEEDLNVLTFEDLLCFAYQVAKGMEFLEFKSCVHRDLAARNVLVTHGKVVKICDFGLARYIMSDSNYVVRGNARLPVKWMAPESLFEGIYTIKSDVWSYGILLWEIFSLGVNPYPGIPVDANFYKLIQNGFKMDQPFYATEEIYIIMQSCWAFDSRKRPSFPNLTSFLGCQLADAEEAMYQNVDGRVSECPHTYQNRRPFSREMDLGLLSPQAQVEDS

[5] = target: T2, Serine/threonine-protein kinase DCLK2 (Homo sapiens) (UniProt Q8N568); assay: Inhibition of human full length DCAMKL2 expressed in baculovirus assessed as substrate phosphorylation using fluorescence-labelled peptides as substrate at 0.2 uM after 90 mins by microfluidic peptide phosphorylation assay
T2 sequence (whole entry): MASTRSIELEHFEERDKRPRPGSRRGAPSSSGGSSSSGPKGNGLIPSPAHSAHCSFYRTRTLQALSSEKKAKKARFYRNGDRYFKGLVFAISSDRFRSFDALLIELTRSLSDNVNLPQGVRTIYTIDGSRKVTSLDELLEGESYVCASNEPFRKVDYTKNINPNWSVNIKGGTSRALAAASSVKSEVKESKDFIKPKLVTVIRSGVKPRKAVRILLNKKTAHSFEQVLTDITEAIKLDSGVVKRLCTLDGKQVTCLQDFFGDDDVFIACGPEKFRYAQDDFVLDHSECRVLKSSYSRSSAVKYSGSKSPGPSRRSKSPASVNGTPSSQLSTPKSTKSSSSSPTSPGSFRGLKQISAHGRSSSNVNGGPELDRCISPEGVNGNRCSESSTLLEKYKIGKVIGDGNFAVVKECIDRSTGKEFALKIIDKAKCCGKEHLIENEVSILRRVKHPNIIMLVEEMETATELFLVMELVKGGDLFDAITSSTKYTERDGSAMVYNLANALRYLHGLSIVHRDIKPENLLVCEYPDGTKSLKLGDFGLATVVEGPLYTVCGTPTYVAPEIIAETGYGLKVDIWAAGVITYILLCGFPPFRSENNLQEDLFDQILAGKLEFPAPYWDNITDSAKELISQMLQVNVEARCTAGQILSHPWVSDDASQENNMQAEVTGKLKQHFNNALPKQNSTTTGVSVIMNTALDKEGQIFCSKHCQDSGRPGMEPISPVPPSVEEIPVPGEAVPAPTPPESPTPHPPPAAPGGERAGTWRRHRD

[6] = target: Tyrosine-protein kinase Fyn (Homo sapiens) (UniProt P06241); conditions: 0.1 uM
Description: Inhibition of human full length FYN expressed in baculovirus assessed as substrate phosphorylation using fluorescence-labelled peptides as substrate at 0.1 uM after 90 mins by microfluidic peptide phosphorylation assay

[7] = target: Serine/threonine-protein kinase PAK 2 (Homo sapiens) (UniProt Q13177); assay: Inhibition of human truncated PAK2 expressed in Escherichia coli cell assessed as substrate phosphorylation using fluorescence-labelled peptides as substrate at 1000 uM after 90 mins by microfluidic peptide phosphorylation assay
Serine/threonine-protein kinase PAK 2 (Homo sapiens), sequence (Q13177 whole entry, the tested form may be a part): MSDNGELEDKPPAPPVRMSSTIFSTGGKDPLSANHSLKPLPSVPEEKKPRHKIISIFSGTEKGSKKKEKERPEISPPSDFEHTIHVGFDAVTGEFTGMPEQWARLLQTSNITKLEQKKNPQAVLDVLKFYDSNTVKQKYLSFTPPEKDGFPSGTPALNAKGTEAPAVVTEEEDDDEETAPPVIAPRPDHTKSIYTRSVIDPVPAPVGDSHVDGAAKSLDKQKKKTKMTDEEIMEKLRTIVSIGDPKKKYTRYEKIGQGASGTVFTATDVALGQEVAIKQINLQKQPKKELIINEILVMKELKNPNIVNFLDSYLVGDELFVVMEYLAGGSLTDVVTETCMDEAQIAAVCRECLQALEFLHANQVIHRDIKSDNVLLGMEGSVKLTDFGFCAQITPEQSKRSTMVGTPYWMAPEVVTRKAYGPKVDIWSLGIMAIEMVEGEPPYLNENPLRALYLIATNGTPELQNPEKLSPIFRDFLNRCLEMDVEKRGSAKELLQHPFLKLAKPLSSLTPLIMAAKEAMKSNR

[8] = target: Protein kinase C theta type (Homo sapiens) (UniProt Q04759); assay: Inhibition of human truncated PKC theta expressed in baculovirus assessed as substrate phosphorylation using fluorescence-labelled peptides as substrate at 70 uM after 90 mins by microfluidic peptide phosphorylation assay
Protein kinase C theta type (Homo sapiens), sequence (Q04759 whole entry, looked up, the tested form may be a part): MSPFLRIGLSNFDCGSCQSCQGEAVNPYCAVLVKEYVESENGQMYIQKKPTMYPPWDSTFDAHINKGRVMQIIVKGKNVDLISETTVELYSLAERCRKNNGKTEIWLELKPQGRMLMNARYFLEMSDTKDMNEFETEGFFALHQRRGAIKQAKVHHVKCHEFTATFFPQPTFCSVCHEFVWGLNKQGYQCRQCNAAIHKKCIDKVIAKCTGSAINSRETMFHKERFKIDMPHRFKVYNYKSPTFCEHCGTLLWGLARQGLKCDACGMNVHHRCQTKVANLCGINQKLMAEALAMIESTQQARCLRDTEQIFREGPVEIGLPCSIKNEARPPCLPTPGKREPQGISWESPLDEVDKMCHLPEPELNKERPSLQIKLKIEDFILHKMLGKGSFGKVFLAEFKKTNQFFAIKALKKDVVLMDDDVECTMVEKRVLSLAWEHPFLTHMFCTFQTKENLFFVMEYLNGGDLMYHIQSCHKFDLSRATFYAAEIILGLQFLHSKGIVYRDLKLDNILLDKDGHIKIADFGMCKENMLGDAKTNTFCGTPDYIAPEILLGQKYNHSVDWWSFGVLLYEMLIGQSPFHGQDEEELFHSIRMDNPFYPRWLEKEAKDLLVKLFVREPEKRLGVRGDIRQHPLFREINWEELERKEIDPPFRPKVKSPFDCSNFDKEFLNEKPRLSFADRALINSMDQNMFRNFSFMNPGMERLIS

[9] = target: Calcium/calmodulin-dependent protein kinase type II subunit beta (Homo sapiens) (UniProt Q13554); assay: Inhibition of human CAMK2 beta catalytic domain expressed in baculovirus assessed as substrate phosphorylation using fluorescence-labelled peptides as substrate at 70 uM after 90 mins by microfluidic peptide phosphorylation assay
Calcium/calmodulin-dependent protein kinase type II subunit beta (Homo sapiens), sequence (Q13554 whole entry, the tested form may be a part): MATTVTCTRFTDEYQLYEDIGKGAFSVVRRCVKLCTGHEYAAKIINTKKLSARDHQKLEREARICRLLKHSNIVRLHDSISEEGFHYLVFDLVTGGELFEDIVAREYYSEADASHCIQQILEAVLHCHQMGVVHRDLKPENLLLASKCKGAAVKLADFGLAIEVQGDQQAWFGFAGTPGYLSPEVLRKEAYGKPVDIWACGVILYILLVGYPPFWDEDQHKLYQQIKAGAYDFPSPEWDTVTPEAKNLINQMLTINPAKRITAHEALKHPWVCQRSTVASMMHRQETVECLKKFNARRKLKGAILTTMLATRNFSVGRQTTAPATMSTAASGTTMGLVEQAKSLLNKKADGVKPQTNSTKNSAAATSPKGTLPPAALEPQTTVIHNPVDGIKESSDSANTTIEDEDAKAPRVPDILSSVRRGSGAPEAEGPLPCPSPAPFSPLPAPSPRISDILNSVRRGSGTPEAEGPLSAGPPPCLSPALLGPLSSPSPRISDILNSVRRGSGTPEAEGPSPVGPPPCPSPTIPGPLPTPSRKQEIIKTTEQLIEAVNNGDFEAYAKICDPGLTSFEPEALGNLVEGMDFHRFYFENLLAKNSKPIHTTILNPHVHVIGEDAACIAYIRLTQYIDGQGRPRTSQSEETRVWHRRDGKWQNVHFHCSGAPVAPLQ

Tyrosine-protein kinase Fyn (Homo sapiens), sequence (P06241 2-537 limits assumed): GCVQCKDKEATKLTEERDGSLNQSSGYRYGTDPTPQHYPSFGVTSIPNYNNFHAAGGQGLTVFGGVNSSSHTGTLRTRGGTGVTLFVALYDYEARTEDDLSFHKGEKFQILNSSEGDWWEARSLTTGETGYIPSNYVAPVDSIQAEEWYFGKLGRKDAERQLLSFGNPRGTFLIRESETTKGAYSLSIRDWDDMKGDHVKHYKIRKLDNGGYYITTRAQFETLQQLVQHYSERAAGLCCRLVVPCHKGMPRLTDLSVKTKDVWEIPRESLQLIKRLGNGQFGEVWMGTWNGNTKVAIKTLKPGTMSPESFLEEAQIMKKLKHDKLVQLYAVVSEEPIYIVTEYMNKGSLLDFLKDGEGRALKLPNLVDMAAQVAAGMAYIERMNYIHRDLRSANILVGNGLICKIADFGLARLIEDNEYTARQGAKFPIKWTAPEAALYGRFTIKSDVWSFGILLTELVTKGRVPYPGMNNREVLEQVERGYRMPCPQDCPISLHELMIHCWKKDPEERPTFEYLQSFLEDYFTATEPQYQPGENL

In the case of `NCC1CCN(c2ncnc3[nH]ccc23)CC1`, the inhibition [1] is reported as 1% and the inhibition [2] is reported as 16.5%.

`NC1(Cc2ccc(Cl)cc2)CCN(c2ncnc3[nH]ccc23)CC1` gave an inhibition [3] of 9% and an inhibition [4] of 0%.

`Clc1ccc(C2(c3ccc(-c4ncnc5[nH]cnc45)cc3)CCNCC2)cc1` was tested, and the inhibition [5] was 10%.

`C[C@H](CN(C)C)Oc1nc(Nc2cc3cccc(Cl)c3cn2)cnc1C#N` showed an inhibition [6] of 0%.

`c1cnc2[nH]ccc2c1` showed an inhibition [7] of 13.5%.

Molecule `CNCc1ccc(-c2ncnc3[nH]cnc23)cc1` has an inhibition [8] of 67.5% and an inhibition [9] of 6.5%.
